Data taken from US20090143421A1, “USE OF 2-BENZOYL-IMIDAZOPYRIDINES IN THERAPEUTICS” (SANOFI-AVENTIS, priority 2006, published 2009).
Structures can show the parent of a compound that is named as a salt.

Legend:
human NOT receptor = assay: binding to the human NOT receptor by SPR (BIACORE S51); settings: immobilized GST-NOT whole protein and NOT ligand-binding domain, 3.75 to 0.1 μM, 4° C.
Protocol: Evaluation of the Binding to the Human NOT Receptor
The direct binding between compounds of the invention and the human NOT receptor was evaluated using SPR (surface plasmon resonance) technology. In this assay, the protein is immobilized covalently to the matrix and the molecule to be studied is injected into the chamber containing the sensor chip. The signal is directly proportional to the amount of product bound to the protein. The binding assays were carried out in a BIACORE S51 instrument (Biacore Inc., Piscataway N.J.). The GST-NOT (NOT-FL) whole protein was provided by Invitrogen (PV3265). The NOT ligand-binding domain (His-Thr-NOT 329-598) was expressed and purified as described in Nature 423, 555-560. The two proteins, diluted to a concentration of 20 μg/ml in an acetate buffer, pH 5.0, containing 5 mM of DTT, were immobilized on a carboxymethyl 5′ dextran surface (CM5 sensor chip, Biacore Inc.) by amine coupling according to the protocol recommended by Biacore, elution being carried with an HBS-N buffer (10 mM HEPES, 0.15 M NaCl, 3 mM EDTA, pH 7.4). Approximately 10000-15000 resonance units (RU) of the proteins are captured on the surface of the CM5 sensor chip. […] The dissociation was recorded for 5 minutes without any other procedure for regenerating the surface. […]

mouse Nurrl receptor = target: T1, mouse Nurrl receptor (Mus musculus, UniProt Q06219); assay: in vitro activity on N2A cells (NBRE-luciferase reporter); type: cell-based; settings: N2A-8NBRE-luciferase cells, 24 hours incubation with the products
T1 construct: a cell line (N2A) endogenously expressing the mouse Nurrl receptor; host or cells: Neuro-2A (N2A) mouse neuroblastoma cells stably transfected with 8NBRE-luciferase
Protocol: Evaluation of the in vitro Activity on N2A Cells
Assays consisted in measuring the in vitro activity of the compounds of the invention on a cell line (N2A) endogenously expressing the mouse Nurrl receptor and stably transfected with the NOT binding response element (NBRE) coupled to the luciferase reporter gene. The EC50 values are between 0.01 and 1000 nM. The assays were carried out according to the procedure described below.
The Neuro-2A cell line comes from a standard commercial source (ATCC) . The Neuro-2A clone was obtained from a spontaneous tumor originating from an A albino mouse strain, by R. J Klebe et al. This Neuro-2A line is subsequently stably transfected with 8NBRE-luciferase. The N2A-8NBRE cells are cultured until confluence in 75 cm^2 culture flasks containing DMEM supplemented with 10% of fetal calf serum, 4.5 g/l of glucose and 0.4 mg/ml of geneticin. After a week of culture, the cells are recovered with 0.25% trypsin for 30 seconds and then resuspended in DMEM without phenol red, containing 4.5 g/l of glucose and 10% of Hyclone delipidized serum, and deposited into transparent-bottom 96-well white plates. The cells are deposited at a rate of 60 000 per well in 75 μl for 24 hours before the addition of the products. […] The plates are subsequently measured in a luminescence counter for microplates after having been sealed with an adhesive film. […]

T1 sequence (Q06219 whole entry): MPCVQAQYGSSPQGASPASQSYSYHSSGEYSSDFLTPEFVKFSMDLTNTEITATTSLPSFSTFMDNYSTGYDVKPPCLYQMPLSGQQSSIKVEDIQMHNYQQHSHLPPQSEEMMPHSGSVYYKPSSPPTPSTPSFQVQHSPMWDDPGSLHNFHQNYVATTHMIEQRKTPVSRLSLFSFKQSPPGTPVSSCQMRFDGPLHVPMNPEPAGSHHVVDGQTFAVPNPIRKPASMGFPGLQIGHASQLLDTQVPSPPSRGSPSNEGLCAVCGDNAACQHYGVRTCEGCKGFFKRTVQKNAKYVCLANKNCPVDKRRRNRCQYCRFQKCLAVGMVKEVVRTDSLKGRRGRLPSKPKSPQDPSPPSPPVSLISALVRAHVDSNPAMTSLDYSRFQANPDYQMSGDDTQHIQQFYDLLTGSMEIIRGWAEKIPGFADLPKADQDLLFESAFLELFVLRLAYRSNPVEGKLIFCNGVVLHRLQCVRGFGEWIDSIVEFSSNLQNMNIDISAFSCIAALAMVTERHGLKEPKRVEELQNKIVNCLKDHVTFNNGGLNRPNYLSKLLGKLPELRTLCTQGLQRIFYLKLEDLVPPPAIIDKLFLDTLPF

O=C(c1ccccc1)c1cn2cc(Cl)ccc2n1 [Compound 3, (6-Chloroimidazo[1,2-a]Pyridin-2-yl)-(Phenyl)Methanone Hydrobromide (1:1)]
affinity (classified by maximum binding level and kinetic parameters) (human NOT receptor): high affinity

Cc1ccn2cc(C(=O)c3ccccc3)nc2c1 [Compound 6, (7-methylimidazo[1,2-a]pyridin-2-yl)(phenyl)methanone]
EC50 (mouse Nurrl receptor): 1.2 nM
affinity (classified by maximum binding level and kinetic parameters) (human NOT receptor): medium affinity

O=C(c1ccccc1)c1cn2ccccc2n1 [Compound 7, (imidazo[1,2-a]pyridin-2-yl)(phenyl)methanone]
EC50 (mouse Nurrl receptor): 31 nM
